Activity calls are given as the source filed them. The calls are words filed in the database; no cut-off is given here.
Experiments:
[1] = Cytotoxicity against human HepG2 cells assessed as cell viability measured after 48 hrs by MTT assay; type: toxicity, cell-based; conditions: human, HepG2 cells
in vitro = conditions: human
Description: Selectivity index, ratio of IC50 for cytotoxicity against human HepG2 cells to IC50 for antiplasmodial activity against asexual blood-stage Plasmodium falciparum D6

Plasmodium yoelii [2] = test: Antimalarial activity against erythrocytic Plasmodium yoelii MRA-428 infected in CF1 mouse assessed as cured mouse at 10 mg/kg, po once daily for 4 days measured on day 28 day; type: functional, organism-based; conditions: time 4.0 day
Plasmodium yoelii [3] = test: Antimalarial activity against erythrocytic Plasmodium yoelii MRA-428 infected in CF1 mouse assessed as reduction in parasitemia at 10 mg/kg, po once daily for 4 days measured on day 5; type: functional; parameters: scale not given: the % may be the effect or the level left; conditions: time 4 day
Plasmodium yoelii [4] = test: Antimalarial activity against erythrocytic Plasmodium yoelii MRA-428 infected in CF1 mouse assessed as reduction in parasitemia at 25 mg/kg, po once daily for 4 days measured on day 5; type: functional; parameters: scale not given: the % may be the effect or the level left; conditions: time 4 day
Plasmodium yoelii [5] = test: Antimalarial activity against erythrocytic Plasmodium yoelii MRA-428 infected in CF1 mouse assessed as reduction in parasitemia at 50 mg/kg, po once daily for 4 days measured on day 5; type: functional; parameters: scale not given: the % may be the effect or the level left; conditions: time 4 day
Plasmodium yoelii [6] = test: Antimalarial activity against erythrocytic Plasmodium yoelii MRA-428 infected in CF1 mouse assessed as cured mouse at 25 mg/kg, po once daily for 4 days measured on day 28 day; type: functional, organism-based; conditions: time 4.0 day
Plasmodium yoelii [7] = test: Antimalarial activity against erythrocytic Plasmodium yoelii MRA-428 infected in CF1 mouse assessed as reduction in parasitemia at 80 mg/kg, po once daily for 4 days measured on day 5; type: functional; parameters: scale not given: the % may be the effect or the level left; conditions: time 4 day
[8] = Metabolic stability in mouse liver microsomes assessed as half life measured up to 60 mins by LC/MS analysis; type: ADME, Microsome
Plasmodium berghei [9] = test: Anti-malarial activity against Luciferase-expressing Plasmodium berghei sporozoites inoculated in po dosed Albino C57BL/6 mouse malaria model assessed as elimination of parasites in blood by measuring bioluminescence signal measured after 72 hrs; type: functional, organism-based
[10] = Metabolic stability in human liver microsomes assessed as half life measured up to 60 mins by LC/MS analysis; type: ADME, Microsome
Plasmodium falciparum [11] = test: microbe, parasite or virus in culture; conditions: Dd2, 72 h
Description: Antiplasmodial activity against asexual blood-stage Plasmodium falciparum Dd2 using 2% haematocrit and 0.2% parasitemia assessed as reduction in fluorescence measured after 72 hrs by Malaria SYBR Green I-based Fluorescence (MSF) assay

Plasmodium berghei [12] = test: Anti-malarial activity against Luciferase-expressing Plasmodium berghei sporozoites inoculated in po dosed Albino C57BL/6 mouse malaria model assessed as elimination of parasites in liver by measuring bioluminescence signal measured after 48 hrs; type: functional, organism-based
Plasmodium falciparum [13] = test: Antiplasmodial activity against asexual blood-stage Plasmodium falciparum Tm90-C2B using 2% haematocrit and 0.2% parasitemia assessed as reduction in fluorescence measured after 72 hrs by Malaria SYBR Green I-based Fluorescence (MSF) assay; type: functional, organism-based
Plasmodium falciparum [14] = test: microbe, parasite or virus in culture; conditions: D6, 72 h
Description: Antiplasmodial activity against asexual blood-stage Plasmodium falciparum D6 using 2% haematocrit and 0.2% parasitemia assessed as reduction in fluorescence measured after 72 hrs by Malaria SYBR Green I-based Fluorescence (MSF) assay

Plasmodium yoelii [15] = test: Antimalarial activity against erythrocytic Plasmodium yoelii MRA-428 infected in CF1 mouse assessed as cured mouse at 80 mg/kg, po once daily for 4 days measured on day 28 day; type: functional, organism-based; conditions: time 4.0 day
Plasmodium yoelii [16] = test: Antimalarial activity against erythrocytic Plasmodium yoelii MRA-428 infected in CF1 mouse assessed as cured mouse at 50 mg/kg, po once daily for 4 days measured on day 28 day; type: functional, organism-based; conditions: time 4.0 day
Plasmodium falciparum [17] = test: Anti-plasmodial activity against Plasmodium falciparum 3D7 infected in erythrocytes assessed as parasite clearance time at 0.27 uM measured 22 to 28 days relative to initial population; type: functional; conditions: time 22-28 day
Plasmodium falciparum [18] = test: Anti-plasmodial activity against Plasmodium falciparum 3D7 infected in erythrocytes assessed as parasite reduction ratio at 0.27 uM measured 22 to 28 days; type: functional; conditions: time 22-28 day
Plasmodium falciparum [19] = test: Anti-plasmodial activity against Plasmodium falciparum 3D7 infected in erythrocytes assessed as Lag phase (time to observe the maximal killing effect of the drug) at 0.27 uM; type: functional

Compound	IC50 at 48 h [1] [µM]	selectivity ratio (in vitro)	Activity (Plasmodium yoelii [2])	Activity (Plasmodium yoelii [3]) [%]	Activity (Plasmodium yoelii [4]) [%]	Activity (Plasmodium yoelii [5]) [%]	Activity (Plasmodium yoelii [6])	Activity (Plasmodium yoelii [7]) [%]	half-life [8] [min]	Activity (Plasmodium berghei [9])	half-life [10] [min]	IC50 (Plasmodium falciparum [11]) [µM]	Activity (Plasmodium berghei [12])	IC50 (Plasmodium falciparum [13]) [µM]	IC50 (Plasmodium falciparum [14]) [µM]	Activity (Plasmodium yoelii [15])	Activity (Plasmodium yoelii [16])	T99.9% (Plasmodium falciparum [17]) [h]	log(activity) (Plasmodium falciparum [18])	Time (Plasmodium falciparum [19]) [h]
CCC1=C(C)/C(=C/NC2CCCCCC2)N=C1c1ccc[nH]1	19.2	309	Not active; None Of The Mouse Cured Out Of Four Tested	100	100	100	Active; Four Mouse Cured Out Of Four	100	10.1	inactive	17.7	0.0555	inactive	0.0376	0.0622	Active; Two Mouse Cured Out Of Four	Active; Four Mouse Cured Out Of Four			
CCc1nc(N)nc(N)c1-c1ccc(Cl)cc1 [PYRIMETHAMINE]																		54	3.49	24
